Reference: patent US12078634B2, “Broad spectrum kinase binding agents” (Promega Corporation, priority 2018, dated 2024)

Key:
[1] = tested on: kinase/NanoLuc® (Nluc) fusion proteins; test: NanoBRET relative BRET signal of kinase tracers against a panel of kinase/NanoLuc fusions in live cells; type: cell-based; conditions: HEK293 cells, 2 hours, 0.5 uM CC-1804, CC-1852, or 1 uM CC-1294; compared to CC-1294
Experimental: (§1) FIG. 1A-B. Summary of the BRET results generated with kinase tracers against a large panel of kinase/NanoLuc® fusions expressed in live cells. Assay signals were assessed by taking the ratio of BRET in the presence of tracer/no tracer control. Assays are categorized as follows: >3-fold signal (green cells), 2-3 fold signal (yellow cells), and 1.5-2 fold signal (red cells).
as §1, with “1C-F. Individual BRET signals observed between” for “1A-B. Summary of”, “broad-spectrum” for “BRET results generated with”, “and individual” for “against a large panel of”
Experiments were conducted during development of embodiments herein to derive a comprehensive analysis of intracellular kinase target engagement using NanoBRET™ tracers derived from CC-1294 versus NanoBRET™ tracers derived from novel inhibitors. […] NanoBRET was measured on a Glomax® Discover plate reader. To determine relative BRET signals, BRET arising from the tracer was divided by BRET in the absence of tracer.

kinase/Nluc fusions [2] = tested on: kinase/Nluc fusions
Experimental: NanoBRET™ assays were run by competitive displacement of NanoBRET™ tracers in living HEK293 cells.
Values were measured by competitive displacement of NanoBRET™ tracers in living cells.
In wells of 96-well plates, 20,000 HEK293 cells per well were transfected with kinase/Nluc fusions expressed from pFN31K and pFN32K plasmids. Transfections were performed using 3:1 FuGENE HD:plasmid ratios. 24 hours post transfection, cells were treated for 2 hours in the presence of tracer and varying concentration of control inhibitor indicated. After incubation, NanoBRET™-TE substrate/inhibitor solution was added to a final concentration of 1×, and BRET was measured on a Glomax® Discover plate reader.

kinase/Nluc fusions [3] = test: NanoBRET fractional occupancy by competitive displacement of NanoBRET tracers in living HEK293 cells; type: cell-based; conditions: of the 200 kinases evaluated, 300 nM test compound, 2 hours, CC-1861 vs CTx (FIG. 5)
Experimental: Transfections were performed using 3:1 FuGENE HD:plasmid ratios.

For `NC(=O)c1ccccc1Nc1nc(Nc2cccc(N3CCNCC3)c2)ncc1Cl` [CC-1852], the “target engagement/kinase profiling breadth (relative BRET signal, tracer / no tracer)” value [1] was “unexpectedly broad spectrum target engagement/kinase profiling”.

`NC(=O)c1ccccc1Nc1nc(Nc2ccc(N3CCNCC3)cc2)ncc1Cl` [CC-1861, 2-((5-chloro-2-((4-(piperazin-1-yl)phenyl)amino)pyrimidin-4-yl)amino)benzamide] was tested, and the “inhibitor potency compared to CTx” value (kinase/Nluc fusions [2]; HEK293 cells, 2 hours, tracer plus varying concentration of inhibitor (FIG. 7)) was “increased inhibitor potency” and the “intracellular affinity compared to CTx-0294885” value (kinase/Nluc fusions [2]; living HEK293 cells, four targets tested (FIG. 7)) was “stronger than CTx-0294885 for three of the four targets tested”.

In the case of `CNC(=O)c1ccccc1Nc1nc(Nc2ccc(N3CCNCC3)cc2)ncc1Cl` [CTx-0294885, 2-((5-chloro-2-((4-(piperazin-1-yl)phenyl)amino)pyrimidin-4-yl)amino)-N-methylbenzamide], the “number of kinases that preferred the compound over the other” value (kinase/Nluc fusions [3]) is reported as 4.
